From patent US12508280B2, “Formulations for improving gut health” (DSM IP ASSETS B.V., priority 2018, dated 2025)

Experiments:
[1] = tested on: fecal microbial community; experiment: Microbiome composition by shotgun sequencing: alpha diversity (first set); type: cell-based, human; conditions: after 24 h fermentation, vs corresponding control
Description: (§1) Since ethanol is known to have antimicrobial effects, two blanks for each type of stock solution were included. As a source of the microbial community, a freshly prepared fecal suspension from the selected donor was added to the reactors. […] All tests, except the blanks, were performed in single repetition, resulting in 40 independent incubations, as specified in Table 1. Incubation conditions of the pre-screening experiment and the final experiment were 48 h at 37° C., under shaking (90 rpm) and anaerobic conditions. DNA were extracted from effluent samples collected from each fermentation flask before (0 h fermentation) and after fermentation (24 h fermentation) and use for microbiome composition analysis by Shotgun sequencing. Effluent samples were collected from each fermentation flask before (0 h fermentation) and after fermentation (48 h fermentation), sterilized by filtering through 0.22 μm filters and used for short chain fatty acids (SCFA), quantification of immunological biomarkers and in vitro analysis in cell culture systems.
(§2) For the first set of in vitro experiments, total DNA was extracted from all samples collected throughout the study using the QIAamp DNA stool minikit (Qiagen, Crawley, United Kingdom) according to the manufacturer's instructions, apart from addition of a bead-beating step and increasing the lysis temperature to 95° C. as described previously (McCormack et al., 2018).
(§3) After DNA isolation, DNA was quantified using the Qubit High Sensitivity DNA assay (Thermo Fisher). Whole metagenome libraries were then prepared using the Illumina Nextera XT kit (Illumina) in accordance with the manufacturer's instructions, with the following modifications: Firstly, tagmentation time was increased to 7 min and secondly, following incorporation of indices and Ampure purification of the products, the samples were each individually sized by running on an Agilent High Sensitivity Chip (Agilent) and quantified using the Qubit High Sensitivity DNA assay (Thermo Fisher) in accordance with Teagasc Sequencing Platform SOPs. The samples were then pooled equimolarly and sequenced on the Illumina NextSeq 500 with a NextSeq 500/550 v2 high-output reagent kit (300 cycles). All sequencing was done in the Teagasc sequencing facility in accordance with standard Illumina sequencing protocols.
(§4) Delivered raw FASTQ sequence files were quality checked as follows: poor quality and duplicate read removal, as well as trimming was implemented using a combination of SAM and Picard tools. Taxonomy was assigned to the reads using the Kraken software and functional analysis was performed with Super focus.

[2] = tested on: genes involved in Acetyl-CoA fermentation to Butyrate pathway; experiment: Shotgun sequencing functional analysis: butyrate pathway genes (first set); type: cell-based, human; conditions: after 24 h fermentation, vs corresponding control
Description: as §1, §2, §3, §4

[3] = tested on: fecal suspension from the selected donor; experiment: Intestinal batch fermentation, SCFA production (first set); type: cell-based, human; conditions: after 48 h fermentation, vs corresponding control
Description: In a first set of in vitro experiments at the start of intestinal batch fermentation incubation, all test ingredients were added from stock solutions to the modified nutritional medium, containing (g/l): 2.5 K2HPO4, 10.9 KH2PO4, 2 NaHCO3, 2 yeast extract, 2 peptone, 1 mucin, 0.5 cysteine, 2 Tween 80, 2 glucose, 2 starch, 2 cellobiose, 0.1 NaCl, 0.01 MgSO4·7H2O, 0.01 CaCl2·6H2O, 0.05 hemin, 0.5 bile salts.
The other compounds were prepared in ethanol: • Vitamin K1 (VK1), • MEG-3 0080 EE Oil (MEG-3 0080 EE), • MEG-3 4535 EE Oil (MEG-3 4535 EE), • MEG-3 8000 EE Oil (MEG-3 8000 EE).
as §1
Short chain fatty acids (SCFA) are an assessment of the microbial carbohydrate metabolism (acetate, propionate and butyrate) or protein metabolism (branched SCFA) and can be compared to typical fermentation patterns for normal GI microbiota. Samples for SCFA analysis were analyzed after 0, 6, 24 and 48 h of incubation for both set of in vitro experiments, above.
SCFA were extracted from the samples with diethyl ether, after the addition of 2-methyl hexanoic acid as an internal standard. Extracts were analysed using a GC-2014 gas chromatograph (Shimadzu's-Hertogenbosch, the Nether-lands), equipped with a capillary fatty acid-free EC-1000Econo-Cap column (dimensions: […]×0.53 mm, film thickness […]; Alltech, Laarne, Belgium), a flame ionization detector and a split injector. The injection volume was […] and the temperature profile was set from 110 to 160° C., with a temperature increase of 6° C. min-1. The carrier gas was nitrogen and the temperature of the injector and detector were […] and 220° C., respectively. The production of unbranched and branched SCFA was calculated by summing the molar concentrations of acetate, propionate, butyrate, valerate and caproate, and summing isobutyrate, isovalerate and isocaproate molar concentrations, respectively. The total SCFA production was defined as the sum of unbranched and branched SCFA.

[4] = tested on: Co-cultures of Caco-2 and HT29-MTX-E12 cells; experiment: Barrier integrity, leaky gut model, apical stressor Rhamnolipids; type: cell-based; conditions: vs corresponding control; for TEER, apical induction of leaky gut cellular model: 48 h minus 0 h fermentation samples
Description: Since ethanol is known to have antimicrobial effects, two blanks for each type of stock solution were included. As a source of the microbial community, a freshly prepared fecal suspension from the selected donor was added to the reactors. […] All tests, except the blanks, were performed in single repetition, resulting in 40 independent incubations, as specified in Table 1. Incubation conditions of the pre-screening experiment and the final experiment were 48 h at 37° C., under shaking (90 rpm) and anaerobic conditions. […] Effluent samples were collected from each fermentation flask before (0 h fermentation) and after fermentation (48 h fermentation), sterilized by filtering through 0.22 μm filters and used for short chain fatty acids (SCFA), quantification of immunological biomarkers and in vitro analysis in cell culture systems.
Co-cultures of Caco-2 and HT29-MTX-E12 cells were used to assess the protective effect of the supernatants before (0 h) and after fermentation (48 h) for both sets of in vitro experiments above.
CaCo-2 ECACC 86010202 and HT29-MTX-E12 ECACC 12040401 cells (both from European Collection of Cell Cultures, Salisbury, UK) were both cultured at 37° C., in atmosphere of 5% CO2 in DMEM medium supplemented with 4.5 g/L D-Glucose, 4 mM L-Glutamine, 1 mM Sodium Pyruvate, 1% MEM Non-Essential Amino Acids, 50 μg/mL Gentamicin (Life Technologies Europe B.V., Zug, Switzerland) and 10% heat-inactivated FBS (Sigma-Aldrich, Buchs, Switzerland). Sub-confluent cells were trypsinized using 0.25% Trypsin/EDTA (Life Technologies Europe B.V., Zug, Switzerland) and passaged at a ratio of 1:5-1:10 twice a week. Cells between passages 55 and 85 were used for this study.
Cells were seeded at a density of 20000 cells/well in a 7:3 ratio (Caco-2:HT29-MTX-E12) in Corning HTS Transwell-24 system PET membranes, 0.4 μM pore size, cell growth area 0.33 cm2/well (Corning BV, Amsterdam, Netherlands) and cultured as described above. Media was changed every second to third day.
For both sets of in vitro experiments, the integrity of cell monolayers after the stressor test was evaluated by both TEER values and by measuring the transport of Lucifer yellow from apical to basolateral compartments (Leaky gut model). A prewarmed HBSS transport buffer composed of Hank's Balanced Salt Solution pH 7.4 with Ca2+ and Mg2+, containing 5.5 mM D-(+)-glucose, Sodium Bicarbonate, and supplemented with 4 mM L-glutamine, 20 mM HEPES (Life Technologies Europe B.V., Zug, Switzerland) was used for all permeability experiments. The inserts were rinsed twice with HBSS using a reservoir tray, 100 μl HBSS were then added to the apical site of the inserts and subsequently moved to new wells with fresh HBSS and allowed to equilibrate at 37° C. for 60 min in the incubator followed by TEER measurement to obtain baseline resistance readings.
Lucifer Yellow CH dilithium salt (Sigma-Aldrich, Buchs, Switzerland) was dissolved in HBSS at a final concentration of 100 μg/ml. Basolateral stressor EtOH (Merck, KgaA, Darmstadt, Germany) was diluted to 5% in HBSS. Apical Stressor Rhamnolipids R90 (AGAE Technologies, Corvallis, USA) was dissolved in HBSS containing Lucifer Yellow at a final concentration of 350 μg/ml. All solutions were prepared freshly each time.
The HBSS transport buffer from the basolateral chamber was aspirated first, then the HBSS from the apical chamber and replaced with Lucifer yellow solution. For the apical stressor test, Lucifer yellow solution containing 350 μg/ml Rhamnolipids or Lucifer yellow solution without stressor for the control wells was loaded into the apical compartment, blank HBSS was subsequently added to the basolateral chamber.

[5] = tested on: HT29 cells; experiment: HT29 cell culture, quantification of immunological biomarkers; type: cell-based; conditions: effluent from 24 h fermentation, vs corresponding control
Description: as §1, with “([…]), […]” for “(0 h fermentation) and after fermentation (48 h fermentation), sterilized by filtering through 0.22 μm filters and used for short chain fatty acids (SCFA), quantification of immunological biomarkers and in vitro analysis in”
For both sets of in vitro experiments, HT29 cells were obtained from American Type Culture Collection (Manassas, VA). Cells were cultured in DMEM supplemented with 10% fetal bovine serum (FBS), 50 units/ml penicillin, 50 μg/ml streptomycin, L-glutamine, and nonessential amino acids (Life Technologies Europe B.V., Zug, Switzerland). Cells were seeded into 12-well plates at 8×10^5 cells per well and used after 2 days of preculture. They were starved in DMEM containing 0.25% FBS for 18 h before treatment. Cells were treated for 24 hours with TNF-α at 100 ng/mL or fermentation supernatants which were sterile filtered and diluted 1:20 in DMEM containing 0.25% FBS. All treatments were done in triplicate. Consequently, cytokines, chemokines and interleukins were quantified in HT29 supernatants using the Luminex Technology (LiquiChip Workstation IS 200, Qiagen, Hilden, Germany) with Bio-Plex Pro Human Cytokine Panel kits (Bio-Rad, Hercules, CA) or with Luminex Screening Assay kits (R&D Systems, Inc., Minneapolis, MN), following the manufacturer's instructions. The data were acquired with the Luminex IS 2.3 software and evaluated with the LiquiChip Analyser software (Qiagen, Hilden, Germany).

[6] = tested on: Bifidobacterium; experiment: Microbiome composition by shotgun sequencing: Bifidobacterium (first set); type: cell-based, human; conditions: after 24 h fermentation, vs corresponding control
Description: as §1, §2, §3, §4

CC1=C(C/C=C(\C)CCC[C@H](C)CCC[C@H](C)CCCC(C)C)C(=O)c2ccccc2C1=O [Vitamin K1]
microbiome alpha diversity (Shannon diversity index) ([1]; 0.2× dose): increase microbiome diversity | microbiome alpha diversity (Shannon diversity index) ([1]; 1× dose): increase microbiome diversity | microbiome alpha diversity (Shannon diversity index) ([1]; 5× dose): increase microbiome diversity | relative abundance of genes involved in Acetyl-CoA fermentation to Butyrate pathway ([2]; 0.2× dose): increase relative abundance | relative abundance of genes involved in Acetyl-CoA fermentation to Butyrate pathway ([2]; 1× dose): increase relative abundance | relative abundance of genes involved in Acetyl-CoA fermentation to Butyrate pathway ([2]; 5× dose): increase relative abundance | acetate production ([3]; 0.2× dose): increase acetate production | butyrate production ([3]; 0.2× dose): increase butyrate production | propionate production ([3]; 0.2× dose): increase propionate production | total SCFAs production ([3]; 0.2× dose): increase total SCFAs production | acetate production ([3]; 1× dose): increase acetate production | butyrate production ([3]; 1× dose): increase butyrate production | propionate production ([3]; 1× dose): increase propionate production | total SCFAs production ([3]; 1× dose): increase total SCFAs production | acetate production ([3]; 5× dose): increase acetate production | butyrate production ([3]; 5× dose): increase butyrate production | propionate production ([3]; 5× dose): increase propionate production | total SCFAs production ([3]; 5× dose): increase total SCFAs production | Lucifer yellow, apical induction of leaky gut cellular model ([4]; 0.2× dose, 48 h fermentation samples): decrease Lucifer yellow | IL-8 production by HT29 cells ([5]; 0.2× dose): increase IL-8 production | MIP3A-CCL20 production by HT29 cells ([5]; 0.2× dose): increase MIP3A-CCL20 production | MIP3A-CCL20 production by HT29 cells ([5]; 1× dose): increase MIP3A-CCL20 production | MIP3A-CCL20 production by HT29 cells ([5]; 5× dose): increase MIP3A-CCL20 production | Bifidobacterium relative abundance ([6]; 0.2× dose): increase Bifidobacterium relative abundance

Nc1nc2ncc(CNc3ccc(C(=O)N[C@@H](CCC(=O)O)C(=O)O)cc3)nc2c(=O)[nH]1 [folic acid, Folic acid]
microbiome alpha diversity (Shannon diversity index) ([1]; 0.2× dose): increase microbiome diversity | microbiome alpha diversity (Shannon diversity index) ([1]; 1× dose): increase microbiome diversity | relative abundance of genes involved in Acetyl-CoA fermentation to Butyrate pathway ([2]; 0.2× dose): increase relative abundance | acetate production ([3]; 0.2× dose): increase acetate production | butyrate production ([3]; 0.2× dose): increase butyrate production | propionate production ([3]; 0.2× dose): increase propionate production | total SCFAs production ([3]; 0.2× dose): increase total SCFAs production | acetate production ([3]; 1× dose): increase acetate production | butyrate production ([3]; 1× dose): increase butyrate production | propionate production ([3]; 1× dose): increase propionate production | total SCFAs production ([3]; 1× dose): increase total SCFAs production | acetate production ([3]; 5× dose): increase acetate production | butyrate production ([3]; 5× dose): increase butyrate production | propionate production ([3]; 5× dose): increase propionate production | total SCFAs production ([3]; 5× dose): increase total SCFAs production | TEER, apical induction of leaky gut cellular model ([4]; 0.2× dose): increase TEER | TEER, apical induction of leaky gut cellular model ([4]; 1× dose): increase TEER | IL-8 production by HT29 cells ([5]; 0.2× dose): increase IL-8 production | IL-8 production by HT29 cells ([5]; 5× dose): increase IL-8 production | Bifidobacterium relative abundance ([6]; 0.2× dose): increase Bifidobacterium relative abundance | Bifidobacterium relative abundance ([6]; 1× dose): increase Bifidobacterium relative abundance
